Where a name gives a salt, the structure may show the parent alone.
Columns and labels:
11β-HSD1 [1] = biological target: T1, 11β-HSD1 (Homo sapiens, UniProt P28845); assay: Inhibition of 11-beta-hydroxysteroid dehydrogenase type 1, activity assay in cell lysates (HEK-293 HHH7 clone, radiolabeled cortisone, TLC); assay type: biochemical; parameters: expressed in transfected cells; host or cells: HEK-293 (HHH7 clone), used as cell lysate; conditions: inhibitor 300 nM, 10 min 37° C.
Description: The cells were then washed with phosphate-buffered saline, and centrifuged for 4 min at 150×g. After removal of the supernatants, cell pellets were snap frozen on dry ice and stored at −80° C. until further use.
Cell lysates were incubated for 10 min at 37° C. in TS2 buffer (100 mM NaCl, 1 mM EGTA, 1 mM EDTA, 1 mM MgCl2, 250 mM sucrose, 20 mM Tris-HCl, pH 7.4) in a final volume of 22.2 μL containing either solvent (0.1% DMSO) or the inhibitor at the respective concentration as indicated in table 3-1.
Reactions were stopped after 10 min by adding an excess of unlabeled cortisone and cortisol (1:1, 2 mM, in methanol). The steroids were separated by TLC, using methanol-chloroform (1:9) as solvent, followed by scintillation counting and calculation of substrate concentration.

[2] = test system: Human skin from abdominal plastic surgery; assay: Total dermal collagen after cortisone and cortisone/inhibitor treatment (human skin samples in culture, Picrosirius Red staining); assay type: cell-based; conditions: for Dermal collagen (score, untreated sample set to 100%): topical daily
Description: Human skin from abdominal plastic surgery was used. The skin samples were cut in pieces of ˜8×3 mm (Ø×thickness) and cultured up to day 6 in an air-liquid interface in a perforated ring of stainless steel in contact with a culture medium (modified Williams'E medium), while renewing the culture medium on day 3. Six skin specimens were used for each test sample. Each test sample (4 μl) was applied topically on top of each piece after cleaning of the surface with a cotton pad, which was subsequently covered with a 6 Ø mm delivery membrane, this procedure was repeated daily. After 6 days skin sections were stained with Picrosirius Red histochemical staining, that dyes collagen fibers in purple-red. The papillary dermis was selected for the analysis. The different colors of the pictures were separated by using a deconvolution matrix. After deconvolution only pink-reddish images are used. Within these images the evaluation of dermal collagen was performed by estimating both color intensity and distribution with IMAGE J (NIH) analysis software. Two slides of each skin sample were processed by image acquisition and related analysis (i.e. 12 images for each treatment).

11β-HSD1 [3] = biological target: T1, 11β-HSD1; assay: Human keratinocytes assay: 11β-HSD1 activity (cortisol level in supernatant after cortisone treatment); assay type: cell-based; parameters: Primary human skin keratinocytes obtained from CellNTec advanced Cell Systems; host or cells: primary human skin keratinocytes; conditions: 1000 nM cortisone, 48 h, primary human keratinocytes
Description: Cell Culture: Primary human skin keratinocytes obtained from CellNTec advanced Cell Systems were maintained in CnT-PR medium at 37° C. in a humidified 5% CO2-air atmosphere. Cells were subcultured before reaching confluence.
Assessment of 11β-HSD1 Activity: Human primary keratinocytes were pre-cultured in complete culture media (CnT-PR, CellNTec) to 90% of confluence. Subsequently cells were washed twice with PBS-buffer to remove remaining corticosteroids and media were exchanged to custom made hydrocortisone-free media. 48 h later cell culture supernatant was collected and cortisol levels were assessed with the Cortisol Parameter Assay Kit (R&D Systems) following the instructions of the protocol and using a Multiskan Ascent plate reader (Labsystems).
Calculation: % remaining 11β-HSD1 activity=(cortisol-level with inhibitor/cortisol-level without inhibitor)*100%

T1 sequence (P28845 whole entry): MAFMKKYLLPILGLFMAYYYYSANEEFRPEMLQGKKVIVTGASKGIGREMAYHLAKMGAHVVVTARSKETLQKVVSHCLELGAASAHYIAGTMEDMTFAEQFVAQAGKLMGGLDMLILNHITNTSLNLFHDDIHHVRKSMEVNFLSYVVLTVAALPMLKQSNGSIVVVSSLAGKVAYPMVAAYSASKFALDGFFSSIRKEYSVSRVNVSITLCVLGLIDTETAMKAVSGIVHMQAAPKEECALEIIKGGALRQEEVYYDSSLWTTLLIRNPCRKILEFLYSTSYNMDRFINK

Row | SMILES | 11β-HSD1 Remaining activity [% of control] (11β-HSD1 [1]) | remaining 11β-HSD1 activity (11β-HSD1 [3]; 3.16 nM inhibitor) [%] | remaining 11β-HSD1 activity (11β-HSD1 [3]; 10.00 nM inhibitor) [%] | remaining 11β-HSD1 activity (11β-HSD1 [3]; 31.62 nM inhibitor) [%] | remaining 11β-HSD1 activity (11β-HSD1 [3]; 100.00 nM inhibitor) [%] | remaining 11β-HSD1 activity (11β-HSD1 [3]; 316.20 nM inhibitor) [%] | remaining 11β-HSD1 activity (11β-HSD1 [3]; 1000.00 nM inhibitor) [%] | further results
1 | CC(=O)N[C@@H](Cc1ccc(C#N)cc1)C(=O)N1CCC[C@@H]1C(=O)NC1C2CC3CC(C2)CC1C3 (stereo partly drawn) [(I-l), (R)-1-((S)-2-acetamido-3-(4-cyanophenyl)-propanoyl)-N-(adamantan-2-yl)pyrrolidine-2-carboxamide] | 24 % of control | 94 | 92 | 76 | 57 | 28 | 12 | Increase versus cortisone (#2) ([2]; 10 μM in DMSO, day 6): +4%; Dermal collagen (score, untreated sample set to 100%) ([2]; 10 μM in DMSO, day 6, cortisone/inhibitor treatment): 80%; Increase versus cortisone (#2) ([2]; 100 μM in DMSO, day 6): +17%; Dermal collagen (score, untreated sample set to 100%) ([2]; 100 μM in DMSO, day 6, cortisone/inhibitor treatment): 90%; Increase versus cortisone (#2) ([2]; 200 μM in DMSO, day 6): +24%; Dermal collagen (score, untreated sample set to 100%) ([2]; 200 μM in DMSO, day 6, cortisone/inhibitor treatment): 96%
2 | CCOc1ccc(C[C@H](N)C(=O)N2CCC[C@@H]2C(=O)NC2C3CC4CC(C3)CC2C4)cc1 (stereo partly drawn) [(I-k), (R)-N-(adamantan-2-yl)-1-((S)-2-amino-3-(4-ethoxyphenyl)propanoyl)pyrrolidine-2-carboxamide trifluoroacetate] | 41 % of control | 95 | 100 | 89 | 80 | 58 | 36 | –
3 | CC(=O)N[C@@H](Cc1ccc(F)cc1)C(=O)N1CCC[C@@H]1C(=O)NC1C2CC3CC(C2)CC1C3 (stereo partly drawn) [(I-h), (R)-1-((S)-2-acetamido-3-(4-fluorophenyl)propanoyl)-N-(adamantan-2-yl)-pyrrolidine-2-carboxamide] | 37 % of control | 100 | 106 | 89 | 78 | 52 | 25 | –
4 | C[C@]12CCC(=O)C=C1CC[C@@H]1[C@@H]2C(=O)C[C@@]2(C)[C@H]1CC[C@]2(O)C(=O)CO [cortisone, reference compound] | – | – | – | – | – | – | – | Dermal collagen (score, untreated sample set to 100%) ([2]; cortisone 0.1 μM in DMSO alone, day 6, positive control for collagen inhibition): 77%

Now from value to molecule, other results behind:

Row | 11β-HSD1 Remaining activity [% of control] (11β-HSD1 [1]) | remaining 11β-HSD1 activity (11β-HSD1 [3]; 3.16 nM inhibitor) [%] | remaining 11β-HSD1 activity (11β-HSD1 [3]; 10.00 nM inhibitor) [%] | remaining 11β-HSD1 activity (11β-HSD1 [3]; 31.62 nM inhibitor) [%] | remaining 11β-HSD1 activity (11β-HSD1 [3]; 100.00 nM inhibitor) [%] | remaining 11β-HSD1 activity (11β-HSD1 [3]; 316.20 nM inhibitor) [%] | remaining 11β-HSD1 activity (11β-HSD1 [3]; 1000.00 nM inhibitor) [%] | SMILES | further results
5 | 69 % of control | – | – | – | – | – | – | NCC(=O)N[C@@H](Cc1c[nH]c2ccccc12)C(=O)N1CCC[C@@H]1C(=O)NC1C2CC3CC(C2)CC1C3 (stereo partly drawn) [(I-q), (R)-N-(adamantan-2-yl)-1-(glycyl-L-tryptophyl)pyrrolidine-2-carboxamide trifluoroacetate] | –
6 | 57 % of control | – | – | – | – | – | – | C[C@H](NC(=O)CN)C(=O)NCCN1CCC[C@@H]1C(=O)NC1C2CC3CC(C2)CC1C3 (stereo partly drawn) [(I-p), (R)-N-(adamantan-2-yl)-1-(2-((S)-2-(2-aminoacetamido)propanamido)ethyl)pyrrolidine-2-carboxamide bistrifluoroacetate] | –
7 | 43 % of control | – | – | – | – | – | – | C[C@H](N)C(=O)NCC(=O)NCCN1CCC[C@@H]1C(=O)NC1C2CC3CC(C2)CC1C3 (stereo partly drawn) [(I-o), (R)-N-(adamantan-2-yl)-1-(2-(2-((S)-2-aminopropanamido)acetamido)ethyl)pyrrolidine-2-carboxamide bistrifluoroacetate] | –

— patent US10470991B2, “(R)-N-(adamantyl-2-yl)pyrrolidine-2-carboxamide derivatives for cosmetic use” (DSM IP ASSETS B.V., priority 2015, dated 2019)
